Experimental data as given in PubChem BioAssay (NCI).
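Each compound was tested at five concentrations against cells in 96-well plates for 48 hours. The concentration for 50% growth inhibition is given as GI50. TGI: total growth inhibition.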

Assays:
Assay in all cases: growth of human tumour cells (NCI), 48 h; in the data active means GI50 below about 0.43 µM; inactive means the rest
A549 NSCLC = tested on: A549 NSCLC
HCT-15 colon = tested on: HCT-15 colon
MALME-3M melanoma = tested on: MALME-3M melanoma
SR leukemia = tested on: SR leukemia
RPMI-8226 leukemia = tested on: RPMI-8226 leukemia
OVCAR-3 ovarian = tested on: OVCAR-3 ovarian
SF-539 CNS = tested on: SF-539 CNS
786-0 renal = tested on: 786-0 renal
T-47D breast = tested on: T-47D breast
PC-3 prostate = tested on: PC-3 prostate
MCF7 breast = tested on: MCF7 breast
NCI-H226 lung = tested on: NCI-H226 lung
OVCAR-4 ovarian = tested on: OVCAR-4 ovarian
U251 CNS = tested on: U251 CNS
DU-145 prostate = tested on: DU-145 prostate
LOX IMVI melanoma = tested on: LOX IMVI melanoma
NCI-H23 lung = tested on: NCI-H23 lung
HCC-2998 colon = tested on: HCC-2998 colon
UO-31 renal = tested on: UO-31 renal
K-562 leukemia = tested on: K-562 leukemia
SK-MEL-28 melanoma = tested on: SK-MEL-28 melanoma
MDA-MB-435 = tested on: MDA-MB-435
NCI/ADR-RES ovarian = tested on: NCI/ADR-RES ovarian
ACHN renal = tested on: ACHN renal
IGROV1 ovarian = tested on: IGROV1 ovarian
HS 578T breast = tested on: HS 578T breast
HOP-62 NSCLC = tested on: HOP-62 NSCLC
CAKI-1 renal = tested on: CAKI-1 renal
MDA-MB-231 breast = tested on: MDA-MB-231 breast
COLO 205 colon = tested on: COLO 205 colon
SW-620 colon = tested on: SW-620 colon
M14 melanoma = tested on: M14 melanoma
NCI-H460 lung = tested on: NCI-H460 lung
CCRF-CEM leukemia = tested on: CCRF-CEM leukemia
OVCAR-8 ovarian = tested on: OVCAR-8 ovarian
SF-295 CNS = tested on: SF-295 CNS
RXF 393 renal = tested on: RXF 393 renal
HT29 colon = tested on: HT29 colon
KM12 colon = tested on: KM12 colon
TK-10 renal = tested on: TK-10 renal
BT-549 breast = tested on: BT-549 breast
UACC-62 melanoma = tested on: UACC-62 melanoma
HL-60(TB) leukemia = tested on: HL-60(TB) leukemia
SNB-19 CNS = tested on: SNB-19 CNS
MOLT-4 leukemia = tested on: MOLT-4 leukemia
SK-MEL-5 melanoma = tested on: SK-MEL-5 melanoma
SN12C renal = tested on: SN12C renal
OVCAR-5 ovarian = tested on: OVCAR-5 ovarian
SF-268 CNS = tested on: SF-268 CNS
HCT-116 colon = tested on: HCT-116 colon
UACC-257 melanoma = tested on: UACC-257 melanoma
SK-OV-3 ovarian = tested on: SK-OV-3 ovarian
EKVX NSCLC = tested on: EKVX NSCLC
SNB-75 CNS = tested on: SNB-75 CNS
NCI-H522 lung = tested on: NCI-H522 lung
SK-MEL-2 melanoma = tested on: SK-MEL-2 melanoma
A498 renal = tested on: A498 renal
HOP-92 NSCLC = tested on: HOP-92 NSCLC
MDA-N = tested on: MDA-N

CC(C)(C)C(=O)OCOP(=O)(OCOC(=O)C(C)(C)C)C1CC(O)N(O)C1=O (stereo unspecified)
8.99 µM: TGI (HOP-92 NSCLC)
26.8 µM: TGI (HOP-62 NSCLC)
25.3 µM: TGI (NCI-H23 lung)
7.71 µM: TGI (RXF 393 renal)
> 100 µM: TGI (A549 NSCLC) | TGI (HCT-15 colon) | TGI (MALME-3M melanoma) | TGI (OVCAR-3 ovarian) | TGI (786-0 renal) | TGI (PC-3 prostate) | TGI (MCF7 breast) | TGI (NCI-H226 lung) | TGI (OVCAR-4 ovarian) | TGI (DU-145 prostate) | TGI (LOX IMVI melanoma) | TGI (K-562 leukemia) | TGI (MDA-MB-435) | TGI (NCI/ADR-RES ovarian) | TGI (ACHN renal) | TGI (CAKI-1 renal) | TGI (COLO 205 colon) | TGI (SW-620 colon) | TGI (M14 melanoma) | TGI (NCI-H460 lung) | TGI (OVCAR-8 ovarian) | TGI (SF-295 CNS) | TGI (KM12 colon) | TGI (TK-10 renal) | TGI (MOLT-4 leukemia) | TGI (SK-MEL-5 melanoma) | TGI (OVCAR-5 ovarian) | TGI (SF-268 CNS) | TGI (HCT-116 colon) | TGI (UACC-257 melanoma) | TGI (SK-OV-3 ovarian) | TGI (EKVX NSCLC) | TGI (SNB-75 CNS)
89.7 µM: TGI (T-47D breast)
7.33 µM: TGI (SNB-19 CNS)
14.3 µM: TGI (CCRF-CEM leukemia)
6.44 µM: TGI (SK-MEL-28 melanoma)
8.63 µM: TGI (BT-549 breast)
inactive: GI50 (A549 NSCLC) 30.7 µM | GI50 (HCT-15 colon) 4.28 µM | GI50 (MALME-3M melanoma) 2820 nM | GI50 (SR leukemia) 4.2 µM | GI50 (RPMI-8226 leukemia) 2880 nM | GI50 (OVCAR-3 ovarian) 9.79 µM | GI50 (SF-539 CNS) 3.18 µM | GI50 (786-0 renal) 3.68 µM | GI50 (T-47D breast) 5.9 µM | GI50 (PC-3 prostate) 8.81 µM | GI50 (MCF7 breast) 3.32 µM | GI50 (NCI-H226 lung) 33.5 µM | GI50 (OVCAR-4 ovarian) 17.5 µM | GI50 (U251 CNS) 3.58 µM | GI50 (DU-145 prostate) 6.7 µM | GI50 (LOX IMVI melanoma) 3.35 µM | GI50 (NCI-H23 lung) 3.67 µM | GI50 (HCC-2998 colon) 4.04 µM | GI50 (UO-31 renal) 2920 nM | GI50 (K-562 leukemia) 3.66 µM | GI50 (SK-MEL-28 melanoma) 2380 nM | GI50 (MDA-MB-435) 8.15 µM | GI50 (NCI/ADR-RES ovarian) 4.39 µM | GI50 (ACHN renal) 6.04 µM | GI50 (IGROV1 ovarian) 2830 nM | GI50 (HS 578T breast) 2590 nM | GI50 (HOP-62 NSCLC) 5.28 µM | GI50 (CAKI-1 renal) 4.87 µM | GI50 (MDA-MB-231 breast) 3.65 µM | GI50 (COLO 205 colon) 8.66 µM | GI50 (SW-620 colon) 4.46 µM | GI50 (M14 melanoma) 8.44 µM | GI50 (NCI-H460 lung) 4.35 µM | GI50 (CCRF-CEM leukemia) 777 nM | GI50 (OVCAR-8 ovarian) 4.73 µM | GI50 (SF-295 CNS) 15.7 µM | GI50 (RXF 393 renal) 2370 nM | GI50 (HT29 colon) 3.07 µM | GI50 (KM12 colon) 4.79 µM | GI50 (TK-10 renal) 20.2 µM | GI50 (BT-549 breast) 2960 nM | GI50 (UACC-62 melanoma) 2370 nM | GI50 (HL-60(TB) leukemia) 3.44 µM | GI50 (SNB-19 CNS) 2370 nM | GI50 (MOLT-4 leukemia) 3.91 µM | GI50 (SK-MEL-5 melanoma) 21.5 µM | GI50 (SN12C renal) 2870 nM | GI50 (OVCAR-5 ovarian) 20.4 µM | GI50 (SF-268 CNS) 3.54 µM | GI50 (HCT-116 colon) 3.72 µM | GI50 (UACC-257 melanoma) > 100 µM | GI50 (SK-OV-3 ovarian) 25.8 µM | GI50 (EKVX NSCLC) 10.8 µM | GI50 (SNB-75 CNS) 19.2 µM | GI50 (NCI-H522 lung) 2950 nM | GI50 (SK-MEL-2 melanoma) 5.14 µM | GI50 (A498 renal) 4.36 µM | GI50 (HOP-92 NSCLC) 1840 nM
9.72 µM: TGI (IGROV1 ovarian)
7.4 µM: TGI (UACC-62 melanoma)
75.2 µM: TGI (SR leukemia)
14.6 µM: TGI (RPMI-8226 leukemia)
14.4 µM: TGI (NCI-H522 lung)
92.1 µM: TGI (SK-MEL-2 melanoma)
49 µM: TGI (HCC-2998 colon)
47.3 µM: TGI (A498 renal)
9.56 µM: TGI (SN12C renal)
16.4 µM: TGI (HT29 colon)
40.9 µM: TGI (MDA-MB-231 breast)
37.6 µM: TGI (UO-31 renal)
22.1 µM: TGI (SF-539 CNS) | TGI (HL-60(TB) leukemia)
44.1 µM: TGI (U251 CNS)
7.85 µM: TGI (HS 578T breast)

C1=C(c2ccccc2)Nc2nnnn2C1c1ccccc1 (stereo unspecified)
0.0305 µM: TGI (CCRF-CEM leukemia)
81 µM: TGI (SF-539 CNS)
57.2 µM: TGI (ACHN renal)
51.3 µM: TGI (SR leukemia)
38.3 µM: TGI (LOX IMVI melanoma)
88.5 µM: TGI (SF-295 CNS)
84.6 µM: TGI (MCF7 breast)
64.4 µM: TGI (HL-60(TB) leukemia)
51.1 µM: TGI (RXF 393 renal)
52 µM: TGI (U251 CNS)
22.3 µM: TGI (HCT-116 colon)
72.5 µM: TGI (DU-145 prostate)
37.7 µM: TGI (HCT-15 colon)
47 µM: TGI (MDA-MB-435)
55.9 µM: TGI (SW-620 colon)
> 100 µM: TGI (A549 NSCLC) | TGI (OVCAR-3 ovarian) | TGI (786-0 renal) | TGI (T-47D breast) | TGI (PC-3 prostate) | TGI (NCI-H226 lung) | TGI (NCI-H23 lung) | TGI (UO-31 renal) | TGI (K-562 leukemia) | TGI (NCI/ADR-RES ovarian) | TGI (IGROV1 ovarian) | TGI (HS 578T breast) | TGI (HOP-62 NSCLC) | TGI (CAKI-1 renal) | TGI (MDA-MB-231 breast) | TGI (COLO 205 colon) | TGI (NCI-H460 lung) | TGI (OVCAR-8 ovarian) | TGI (UACC-62 melanoma) | TGI (SNB-19 CNS) | TGI (SK-MEL-5 melanoma) | TGI (SN12C renal) | TGI (OVCAR-5 ovarian) | TGI (MDA-N) | TGI (SF-268 CNS) | TGI (UACC-257 melanoma) | TGI (SK-OV-3 ovarian) | TGI (SK-MEL-2 melanoma) | TGI (A498 renal)
79.8 µM: TGI (M14 melanoma)
73.9 µM: TGI (TK-10 renal)
60.3 µM: TGI (MOLT-4 leukemia)
41.5 µM: TGI (HT29 colon)
69.8 µM: TGI (NCI-H522 lung)
28.6 µM: TGI (KM12 colon)
